The values below come from patent US5731323A, “Quinuclidine derivatives as squalene synthase inhibitors” (Zeneca Limited, priority 1992, dated 1998).

One experiment has as its system Squalene synthase. Kind of experiment: Inhibition of squalene synthase (squalene formation from tritiated farnesyl pyrophosphate, rat liver microsomal protein). The format is biochemical. To be noted: 2.5 μM, substrate 20 μM, 15 minutes, 37° C. The protocol:
(a) Inhibition of Squalene synthase
In this test, the ability of a compound to prevent the formation of squalene from a radioactive substrate (tritiated farnesyl pyrophosphate) is assessed.
The test compound is incubated at a concentration of 25 micromolar in 200 μl of a buffered solution containing potassium phosphate (50 mM), MgCl2 (4.95 mM), KF (9.9 mM), NADPH (0.9 mM) and rat liver microsomal protein (20 μg). Rat liver microsomes are prepared by the method described in published European Patent Application No. 324,421 and stored in liquid nitrogen prior to assay. Assay vials are kept at 37° C. throughout the incubation.
The reaction is started with the addition of the substrate (1-[^3 H]-farnesyl pyrophosphate), final concentration 20 μM, and stopped after 15 minutes reaction time with the addition of 50 μl of 4% KOH. The reaction products are separated from unreacted substrate after application to a C-18 octadecyl 1 ccBond column (Analytichem Int product No. 617101). An aqueous fraction is eluted with 250 μl of 0.1M KOH. Squalene is then eluted with 1.0 ml 10% ethylacetate in hexane and radioactivity determined. The difference in radioactivity in the presence and absence of the test compound is used to determine the level of inhibition. […] The IC50 can then be determined from a plot of percentage inhibition against concentration of test compound.

The subject of experiment [1] is de novo hepatic cholesterol synthesis. Kind of experiment: Acute rat cholesterol synthesis assay (de novo hepatic cholesterol synthesis from exogenously administered 14C-acetate). It counts as in vivo. The following applies: female rats, dose and route not stated. The procedure:
(b) Acute rat cholesterol synthesis assay.
This is an acute in vivo test in the rat to measure de novo hepatic cholesterol synthesis from exogenously administered ^14 C-acetate.
Female rats (35-55 g) are housed in reverse lighting conditions (red light from 0200 h-1400 h) for a period of about 2 weeks prior to test. Animals are allowed free access to chow and drinking water throughout this period. At test, animals should weigh 125-150 g.
Test compounds may be administered by oral gavage, dissolved or suspended in 0.5% polysorbate, or by ip or iv dosing. Control animals receive vehicle alone. After 1 hour the rats are injected ip with 25 μCi [2-^14 C]-acetate (NEN DUPONT. specific activity, 45-60 mCi/mmol NEC-085H, or AMERSHAM specific activity, 50-60 mCi/mmol CFA 14) in a volume of 0.25 ml saline (100 μCi/ml). After a further hour, rats are terminally anaesthetised with halothane and a blood sample obtained from the abdominal vena cava.
1 ml of plasma is lyophilised and then saponified in 2 ml ethanolic KOH (1 part 33% KOH, 9 parts ethanol) at 75° C. for 2 hours. After addition of an equal quantity of water, non-saponifiable lipids are extracted with two 5 ml volumes of hexane. The hexane extracts are evaporated to dryness and the residues dissolved in ethanol to determine cholesterol specific radioactivity. ED50 values can be determined in the standard way.

On to `CCCCOc1ccc(C#CC2(O)CN3CCC2CC3)cn1` (centres unmarked) [Example 1, 3-[2-(6-butoxy-3-pyridyl)ethynyl]quinuclidin-3-ol], for which the “inhibition (squalene synthase)” value in the experiment on Squalene synthase is reported as “about 99%”. Also, in experiment [1], the “decrease in the rate of cholesterol biosynthesis” value was found to be 71%.
